Calls of active or inactive are those of the source. No cut-off for these calls is given here.
Biological target: T1, 2-5A-dependent ribonuclease (Homo sapiens) (UniProt Q05823)
T1 sequence (whole entry): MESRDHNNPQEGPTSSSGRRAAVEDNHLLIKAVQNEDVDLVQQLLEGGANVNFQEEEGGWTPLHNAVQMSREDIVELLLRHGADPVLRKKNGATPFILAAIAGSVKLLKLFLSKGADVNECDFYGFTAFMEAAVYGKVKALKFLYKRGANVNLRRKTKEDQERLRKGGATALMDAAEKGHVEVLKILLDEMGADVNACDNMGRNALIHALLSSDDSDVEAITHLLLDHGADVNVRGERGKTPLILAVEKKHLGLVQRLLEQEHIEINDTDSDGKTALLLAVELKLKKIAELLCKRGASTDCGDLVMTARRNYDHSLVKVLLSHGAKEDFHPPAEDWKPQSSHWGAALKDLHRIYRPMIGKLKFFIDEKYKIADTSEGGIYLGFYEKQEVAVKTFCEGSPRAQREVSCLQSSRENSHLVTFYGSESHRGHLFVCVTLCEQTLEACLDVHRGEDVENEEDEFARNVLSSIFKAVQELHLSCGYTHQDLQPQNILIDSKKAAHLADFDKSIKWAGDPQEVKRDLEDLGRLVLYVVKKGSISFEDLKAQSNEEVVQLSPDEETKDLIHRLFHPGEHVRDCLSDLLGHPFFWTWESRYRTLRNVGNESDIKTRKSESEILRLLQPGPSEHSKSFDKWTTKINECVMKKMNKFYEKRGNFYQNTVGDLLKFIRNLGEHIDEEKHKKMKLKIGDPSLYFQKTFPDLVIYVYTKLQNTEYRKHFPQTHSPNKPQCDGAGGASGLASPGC
Assay: Antagonist activity at human RNase L expressed in Escherichia coli BL21 (DE3) cells assessed as RNA cleavage using Cy5-C11-rUU-C7-BHQ2 as substrate by FRET assay in presence of natural activator pAAAA
Assay type: functional

Structure (SMILES)	inhibition
Nc1ncnc2c1ncn2[C@@H]1O[C@H](COP(=O)(O)CO[C@@H]2[C@H](O)[C@@H](COP(=O)(O)O[C@@H]3[C@H](O)[C@@H](COP(=O)(O)CO[C@@H]4[C@H](O)[C@@H](COP(=O)(O)O)O[C@H]4n4cnc5c(N)ncnc54)O[C@H]3n3cnc4c(N)ncnc43)O[C@H]2n2cnc3c(N)ncnc32)[C@@H](O)[C@H]1O	inactive
Nc1ncnc2c1ncn2[C@@H]1O[C@H](COCP(=O)(O)O[C@H]2[C@H](O)[C@@H](COCP(=O)(O)O[C@@H]3[C@H](O)[C@@H](COP(=O)(O)O[C@H]4[C@H](O)[C@@H](COCP(=O)(O)O)O[C@H]4n4cnc5c(N)ncnc54)O[C@H]3n3cnc4c(N)ncnc43)O[C@H]2n2cnc3c(N)ncnc32)[C@@H](O)[C@@H]1O	inactive
Nc1ncnc2c1ncn2[C@@H]1O[C@H](COP(=O)(O)O[C@@H]2[C@H](O)[C@@H](COP(=O)(O)CO[C@H]3[C@H](O)[C@@H](COP(=O)(O)CO[C@H]4[C@H](O)[C@@H](COP(=O)(O)O)O[C@H]4n4cnc5c(N)ncnc54)O[C@H]3n3cnc4c(N)ncnc43)O[C@H]2n2cnc3c(N)ncnc32)[C@@H](O)[C@H]1O	inactive
Nc1ncnc2c1ncn2[C@@H]1O[C@H](COP(=O)(O)CO[C@@H]2[C@@H](O)[C@@H](COP(=O)(O)CO[C@@H]3[C@@H](O)[C@@H](COP(=O)(O)O[C@@H]4[C@H](O)[C@@H](COP(=O)(O)O)O[C@H]4n4cnc5c(N)ncnc54)O[C@H]3n3cnc4c(N)ncnc43)O[C@H]2n2cnc3c(N)ncnc32)[C@@H](O)[C@H]1O	inactive
Nc1ncnc2c1ncn2[C@@H]1O[C@H](COCP(=O)(O)O[C@H]2[C@H](O)[C@@H](COCP(=O)(O)O[C@@H]3[C@H](O)[C@@H](COP(=O)(O)O[C@@H]4[C@H](O)[C@@H](COP(=O)(O)O)O[C@H]4n4cnc5c(N)ncnc54)O[C@H]3n3cnc4c(N)ncnc43)O[C@H]2n2cnc3c(N)ncnc32)[C@@H](O)[C@@H]1O	inactive
Nc1ncnc2c1ncn2[C@@H]1O[C@H](COP(=O)(O)CO[C@H]2[C@H](O)[C@@H](COP(=O)(O)CO[C@H]3[C@H](O)[C@@H](COP(=O)(O)CO[C@H]4[C@H](O)[C@@H](COP(=O)(O)O)O[C@H]4n4cnc5c(N)ncnc54)O[C@H]3n3cnc4c(N)ncnc43)O[C@H]2n2cnc3c(N)ncnc32)[C@@H](O)[C@H]1O	inactive
Nc1ncnc2c1ncn2[C@@H]1O[C@H](COCP(=O)(O)O[C@H]2[C@H](O)[C@@H](COCP(=O)(O)O[C@H]3[C@H](O)[C@@H](COCP(=O)(O)O[C@@H]4[C@H](O)[C@@H](COP(=O)(O)O)O[C@H]4n4cnc5c(N)ncnc54)O[C@H]3n3cnc4c(N)ncnc43)O[C@H]2n2cnc3c(N)ncnc32)[C@@H](O)[C@@H]1O	inactive
Nc1ncnc2c1ncn2[C@@H]1O[C@H](COP(=O)(O)O[C@@H]2[C@H](O)[C@@H](COCP(=O)(O)O[C@@H]3[C@H](O)[C@@H](COCP(=O)(O)O[C@@H]4[C@H](O)[C@@H](COCP(=O)(O)O)O[C@H]4n4cnc5c(N)ncnc54)O[C@H]3n3cnc4c(N)ncnc43)O[C@H]2n2cnc3c(N)ncnc32)[C@@H](O)[C@H]1O	inactive
Nc1ncnc2c1ncn2[C@@H]1O[C@H](COP(=O)(O)O[C@H]2[C@H](O)[C@@H](COCP(=O)(O)O[C@H]3[C@H](O)[C@@H](COCP(=O)(O)O[C@H]4[C@H](O)[C@@H](COCP(=O)(O)O)O[C@H]4n4cnc5c(N)ncnc54)O[C@H]3n3cnc4c(N)ncnc43)O[C@H]2n2cnc3c(N)ncnc32)[C@@H](O)[C@H]1O	inactive
Nc1ncnc2c1ncn2[C@@H]1O[C@H](COCP(=O)(O)O[C@@H]2[C@H](O)[C@@H](COP(=O)(O)O[C@@H]3[C@H](O)[C@@H](COCP(=O)(O)O[C@@H]4[C@H](O)[C@@H](COP(=O)(O)O)O[C@H]4n4cnc5c(N)ncnc54)O[C@H]3n3cnc4c(N)ncnc43)O[C@H]2n2cnc3c(N)ncnc32)[C@@H](O)[C@H]1O	inactive
Nc1ncnc2c1ncn2[C@@H]1O[C@H](COCP(=O)(O)O[C@@H]2[C@H](O)[C@@H](COP(=O)(O)O[C@@H]3[C@@H](O)[C@@H](COCP(=O)(O)O[C@@H]4[C@H](O)[C@@H](COP(=O)(O)O)O[C@H]4n4cnc5c(N)ncnc54)O[C@H]3n3cnc4c(N)ncnc43)O[C@H]2n2cnc3c(N)ncnc32)[C@H](O)[C@H]1O	inactive
Nc1ncnc2c1ncn2[C@@H]1O[C@H](COP(=O)(O)O[C@@H]2[C@H](O)[C@@H](COCP(=O)(O)O[C@@H]3[C@H](O)[C@@H](COP(=O)(O)O[C@@H]4[C@H](O)[C@@H](COCP(=O)(O)O)O[C@H]4n4cnc5c(N)ncnc54)O[C@H]3n3cnc4c(N)ncnc43)O[C@H]2n2cnc3c(N)ncnc32)[C@@H](O)[C@H]1O	inactive
Nc1ncnc2c1ncn2[C@@H]1O[C@H](COCP(=O)(O)O[C@H]2[C@H](O)[C@@H](COCP(=O)(O)O[C@H]3[C@H](O)[C@@H](COCP(=O)(O)O[C@H]4[C@H](O)[C@@H](COCP(=O)(O)O)O[C@H]4n4cnc5c(N)ncnc54)O[C@H]3n3cnc4c(N)ncnc43)O[C@H]2n2cnc3c(N)ncnc32)[C@@H](O)[C@@H]1O	inactive

Other lines, results leading:

inhibition	Structure (SMILES)
inactive	Nc1ncnc2c1ncn2[C@@H]1O[C@H](COP(=O)(O)O[C@@H]2[C@H](O)[C@@H](COCP(=O)(O)O[C@@H]3[C@H](O)[C@@H](COCP(=O)(O)O[C@@H]4[C@H](O)[C@@H](COP(=O)(O)O)O[C@H]4n4cnc5c(N)ncnc54)O[C@H]3n3cnc4c(N)ncnc43)O[C@H]2n2cnc3c(N)ncnc32)[C@@H](O)[C@H]1O
inactive	Nc1ncnc2c1ncn2[C@@H]1O[C@H](COP(=O)(O)O[C@@H]2[C@H](O)[C@@H](COP(=O)(O)CO[C@@H]3[C@H](O)[C@@H](COP(=O)(O)CO[C@@H]4[C@H](O)[C@@H](COP(=O)(O)O)O[C@H]4n4cnc5c(N)ncnc54)O[C@H]3n3cnc4c(N)ncnc43)O[C@H]2n2cnc3c(N)ncnc32)[C@@H](O)[C@H]1O
inactive	Nc1ncnc2c1ncn2[C@@H]1O[C@H](COCP(=O)(O)O[C@@H]2[C@H](O)[C@@H](COP(=O)(O)O[C@@H]3[C@H](O)[C@@H](COP(=O)(O)O[C@@H]4[C@H](O)[C@@H](COCP(=O)(O)O)O[C@H]4n4cnc5c(N)ncnc54)O[C@H]3n3cnc4c(N)ncnc43)O[C@H]2n2cnc3c(N)ncnc32)[C@@H](O)[C@H]1O
inactive	Nc1ncnc2c1ncn2[C@@H]1O[C@H](COCP(=O)(O)O[C@@H]2[C@@H](O)[C@@H](COCP(=O)(O)O[C@@H]3[C@@H](O)[C@@H](COCP(=O)(O)O[C@@H]4[C@H](O)[C@@H](COP(=O)(O)O)O[C@H]4n4cnc5c(N)ncnc54)O[C@H]3n3cnc4c(N)ncnc43)O[C@H]2n2cnc3c(N)ncnc32)[C@H](O)[C@H]1O
inactive	Nc1ncnc2c1ncn2[C@@H]1O[C@H](COP(=O)(O)CO[C@H]2[C@H](O)[C@@H](COP(=O)(O)CO[C@H]3[C@H](O)[C@@H](COP(=O)(O)O[C@@H]4[C@H](O)[C@@H](COP(=O)(O)O)O[C@H]4n4cnc5c(N)ncnc54)O[C@H]3n3cnc4c(N)ncnc43)O[C@H]2n2cnc3c(N)ncnc32)[C@@H](O)[C@H]1O
inactive	Nc1ncnc2c1ncn2[C@@H]1O[C@H](COP(=O)(O)O[C@@H]2[C@@H](O)[C@@H](COCP(=O)(O)O[C@@H]3[C@@H](O)[C@@H](COCP(=O)(O)O[C@@H]4[C@@H](O)[C@@H](COCP(=O)(O)O)O[C@H]4n4cnc5c(N)ncnc54)O[C@H]3n3cnc4c(N)ncnc43)O[C@H]2n2cnc3c(N)ncnc32)[C@@H](O)[C@H]1O
inactive	Nc1ncnc2c1ncn2[C@@H]1O[C@H](COP(=O)(O)CO[C@@H]2[C@H](O)[C@@H](COP(=O)(O)CO[C@@H]3[C@H](O)[C@@H](COP(=O)(O)CO[C@@H]4[C@H](O)[C@@H](COP(=O)(O)O)O[C@H]4n4cnc5c(N)ncnc54)O[C@H]3n3cnc4c(N)ncnc43)O[C@H]2n2cnc3c(N)ncnc32)[C@@H](O)[C@H]1O
inactive	Nc1ncnc2c1ncn2[C@@H]1O[C@H](COP(=O)(O)O[C@H]2[C@H](O)[C@@H](COCP(=O)(O)O[C@@H]3[C@H](O)[C@@H](COP(=O)(O)O[C@H]4[C@H](O)[C@@H](COCP(=O)(O)O)O[C@H]4n4cnc5c(N)ncnc54)O[C@H]3n3cnc4c(N)ncnc43)O[C@H]2n2cnc3c(N)ncnc32)[C@@H](O)[C@H]1O
inactive	Nc1ncnc2c1ncn2[C@@H]1O[C@H](COP(=O)(O)CO[C@@H]2[C@H](O)[C@@H](COP(=O)(O)CO[C@@H]3[C@H](O)[C@@H](COP(=O)(O)O[C@@H]4[C@H](O)[C@@H](COP(=O)(O)O)O[C@H]4n4cnc5c(N)ncnc54)O[C@H]3n3cnc4c(N)ncnc43)O[C@H]2n2cnc3c(N)ncnc32)[C@@H](O)[C@H]1O
inactive	Nc1ncnc2c1ncn2[C@@H]1O[C@H](COCP(=O)(O)O[C@@H]2[C@H](O)[C@@H](COP(=O)(O)O[C@@H]3[C@H](O)[C@@H](COCP(=O)(O)O[C@@H]4[C@H](O)[C@@H](COCP(=O)(O)O)O[C@H]4n4cnc5c(N)ncnc54)O[C@H]3n3cnc4c(N)ncnc43)O[C@H]2n2cnc3c(N)ncnc32)[C@@H](O)[C@H]1O
inactive	Nc1ncnc2c1ncn2[C@@H]1O[C@H](COP(=O)(O)O[C@H]2[C@H](O)[C@@H](COCP(=O)(O)O[C@H]3[C@H](O)[C@@H](COCP(=O)(O)O[C@@H]4[C@H](O)[C@@H](COP(=O)(O)O)O[C@H]4n4cnc5c(N)ncnc54)O[C@H]3n3cnc4c(N)ncnc43)O[C@H]2n2cnc3c(N)ncnc32)[C@@H](O)[C@H]1O

— ChEMBL document CHEMBL2057064, “Activation of human RNase L by 2'- and 5'-O-methylphosphonate-modified oligoadenylates” (Bioorg Med Chem Lett, 2012)
